The source of these data is article PMC10451629, “Evaluation of the Effects of Heteroaryl Ethylene Molecules in Combination with Antibiotics: A Preliminary Study on Control Strains” (Antibiotics, 2023).

Values after ≈ are worked out from the molar mass of the structure shown. Values joined by “and” are separate entries in the source; they are usually repeats but may differ in a detail not shown here. Equal values may be shown once. Read-outs that look alike come from different tables or passages of the source.

Assay [1] has as its system S. aureus ATCC 29213. The experiment in a line: Broth microdilution MIC. As to conditions: Staphylococcus aureus, ATCC29213, S. aureus ATCC 29213. Format: cell-based. (In general: Broth dilution looks for growth in wells or tubes with falling amounts of substance.)
Assay [2] has as its system E. coli ATCC 25922. The experiment in a line: Broth microdilution MIC. Format: cell-based. Conditions: Escherichia coli.
Assay [3] concerns P. aeruginosa ATCC 27853. Put plainly: Broth microdilution MIC. In kind it is cell-based, Pseudomonas aeruginosa. As to conditions: for MIC: Pseudomonas aeruginosa, ATCC27853, P. aeruginosa ATCC 27853.
In assay [4] the test system is CaCo-2 (ATCC HTB-37) colon–rectal cancer cell line. The experiment in a line: MTT cytotoxicity assay on CaCo-2 cells. In kind it is cell-based, human. As to conditions: for IC50: Homo sapiens; for Percentage of cell growth, antibiotic / Percentage of cell growth, antibiotic + PB4 0.2 µM: CaCo-2. The method, then: To fully assess the biological activity of the new molecules, they were tested at different concentrations on the CaCo-2 (ATCC HTB-37) colon–rectal cancer cell line. These human cancer cells were exposed to compound solutions ranging in concentration from 100 µM to 0.01 µM. As a reference compound for these assays, we used 5-Fluorouracil (5-FU), a pyrimidine analog from the antimetabolite family.
The MTT assay was also performed for the selected antibiotics to evaluate the effect of their combined treatment with PB4.
To evaluate the effect of the heteroaryl ethylene compounds and the antibiotics, an MTT ([3-(4,5-dimethylthiazol-2-yl)-2,5-diphenyltetrazolium bromide]) assay was performed as previously described. […] Both concentrations were also tested in combination with PB4 0.2 µM. All antibiotics were provided by Thermo Scientific^TM Oxoid^TM, Basingstoke, UK. Twenty-four hours after plating, the cells were treated with 20 μL of each solution. Untreated cells were used as controls. […] The IC50 values were calculated by nonlinear regression analysis using GraphPad Prism 6.0 software.
Background: Tetrazolium assays rely on reduction of a dye to a coloured formazan, in cell work by metabolically active cells.

The subject of assay [5] is E. faecalis ATCC 29212. Put plainly: Broth microdilution MIC. In kind it is cell-based, Enterococcus faecalis. As to conditions: for MIC: Enterococcus faecalis, ATCC29212, E. faecalis ATCC 29212.
In the next assay the test system is Gram-positive strains. Put plainly: Broth microdilution MIC, summary over Gram-positive strains. In kind it is cell-based.
Another assay relates to S. aureus ATCC 12598. Put plainly: Broth microdilution MIC. In kind it is cell-based, Staphylococcus aureus. Conditions: Staphylococcus aureus, ATCC12598, S. aureus ATCC 12598; substance alone; read-out: MIC.
A further assay relates to S. enterica ATCC 14028. Put plainly: Broth microdilution MIC. Format: cell-based. As to conditions: Salmonella enterica, ATCC14028, substance alone.
Assay [6] concerns S. aureus ATCC BAA-1556 USA300. The experiment in a line: Broth microdilution MIC. Format: cell-based, Staphylococcus aureus. As to conditions: Staphylococcus aureus, S. aureus ATCC BAA-1556 USA300; substance alone.
The subject of assay [7] is K. pneumoniae ATCC 700603. Put plainly: Broth microdilution MIC. In kind it is cell-based, Klebsiella pneumoniae. As to conditions: for MIC: Klebsiella pneumoniae, ATCC700603, K. pneumoniae ATCC 700603, substance alone, read-out: MIC.
The test system of the next assay is Gram-negative bacteria. The experiment in a line: Broth microdilution MIC, summary over Gram-negative bacteria. In kind it is cell-based. As to conditions: summary in text over Gram-negative bacteria.
The test system of a further assay is A. baumannii ATCC 17978. Put plainly: Broth microdilution MIC. As to conditions: Acinetobacter baumannii, ATCC17978, substance alone. In kind it is cell-based.
In assay [8] the test system is P. aeruginosa ATCC 27853. Also noted: method as in earlier work. Conditions: quality control range, ref CLSI; cited from earlier work.
The test system of assay [9] is S. aureus ATCC 29213. Also noted: method as in earlier work. Conditions: quality control range, ref CLSI; cited from earlier work.
Assay [10] has as its system E. coli ATCC 25922. Further details: method as in earlier work. As to conditions: quality control range, ref CLSI; cited from earlier work.
In assay [11] the test system is E. faecalis ATCC 29212. Further details: method as in earlier work. Conditions: quality control range, ref CLSI; cited from earlier work.
The mark [12] stands for this setting: ATCC25922, substance alone, read-out: MIC.
Setting [13] is: quality control strain, technical positive control, read-out: MIC (quality control).

The MIC is the least concentration at which growth counts as inhibited. As a reminder, the IC50 is the concentration that gives 50% inhibition.

As for `C[n+]1c(/C=C/c2ccc(-c3cccs3)s2)cccc1/C=C/c1ccc(-c2cccs2)s1` [GC-VI-70], the MIC with S. aureus ATCC 29213 [1] (substance alone, read-out: MIC) was 16 µg/mL and 26.6 µM; in the assay on E. coli ATCC 25922 [2] (setting [12]), 128 µg/mL and 213 µM; with P. aeruginosa ATCC 27853 [3] (substance alone, read-out: MIC), > 128 µg/mL and > 213 µM; with E. faecalis ATCC 29212 [5] (substance alone, read-out: MIC), 2 µg/mL and 3.32 µM; in the assay with Gram-positive strains, 2 to 16 µg/mL; in the assay with S. aureus ATCC 12598, 16 µg/mL and 26.6 µM. The MIC in the assay with S. enterica ATCC 14028 was > 128 µg/mL and > 213 µM; in assay [6] it was 4 µg/mL and 6.65 µM; in assay [7], > 128 µg/mL and > 213 µM; in the assay with A. baumannii ATCC 17978, 32 µg/mL and 53.2 µM. Also, the 50% inhibitory concentration (IC50) is 940 nM in assay [4] (Caco-2, 24 h, CaCo-2 cell line, MTT, 24 h of treatment, read-out: IC50 at 24 h); 3760 nM in assay [4] (Caco-2, 48 h, CaCo-2 cell line, MTT, 48 h of treatment, read-out: IC50 at 48 h); 320 nM in [4] (Caco-2, CaCo-2 cells, time not given, read-out: IC50 value on CaCo-2 cells). For the same compound, in the assay on Gram-negative bacteria, the “MIC values for Gram-negative bacteria” value is “high MIC values”.
Turning to `CNC(C)C1CCC(N)C(OC2C(N)CC(N)C(OC3OCC(C)(O)C(NC)C3O)C2O)O1` (stereo not drawn) [Gentamicin, gentamicin, reference compound], the MIC with S. aureus ATCC 29213 [1] (setting [13]) stood at 0.5 µg/mL (≈ 1.05 µM); in the assay with S. aureus ATCC 29213 [1] (substance alone, read-out: MIC) it was 0.5 µg/mL (≈ 1.05 µM); in the assay with E. coli ATCC 25922 [2] (ATCC25922, quality control strain, technical positive control, read-out: MIC (quality control)) it was 0.5 µg/mL (≈ 1.05 µM); in the assay on E. coli ATCC 25922 [2] (setting [12]), 0.5 µg/mL (≈ 1.05 µM); with P. aeruginosa ATCC 27853 [3] (setting [13]), 2 µg/mL (≈ 4.19 µM); in the assay on P. aeruginosa ATCC 27853 [3] (substance alone, read-out: MIC) it was 2 µg/mL (≈ 4.19 µM). The MIC amounted to 8 µg/mL (≈ 16.8 µM) with E. faecalis ATCC 29212 [5] (setting [13]); 4 µg/mL (≈ 8.38 µM) in the assay on E. faecalis ATCC 29212 [5] (substance alone, read-out: MIC); 0.5 µg/mL (≈ 1.05 µM) with S. aureus ATCC 12598; 1 µg/mL (≈ 2.09 µM) in the assay on S. enterica ATCC 14028; 0.5 µg/mL (≈ 1.05 µM) in assay [6]; 8 µg/mL (≈ 16.8 µM) in assay [7]. The compound also had an MIC in the assay with A. baumannii ATCC 17978 of 2 µg/mL (≈ 4.19 µM). Moreover, the “Reduction of antibiotic MIC by PB4” value in the assay with P. aeruginosa ATCC 27853 [3] (P. aeruginosa ATCC 27853, antibiotic + PB4 vs antibiotic alone) is 2 -fold log MIC reductions; in the assay on E. faecalis ATCC 29212 [5] (E. faecalis ATCC 29212, antibiotic + PB4 vs antibiotic alone) it was 2 -fold log reduction; in [7] (K. pneumoniae ATCC 700603, antibiotic + PB4 vs antibiotic alone) it was 2 -fold log MIC reductions. For the same compound, the “MIC CLSI Range” value in the assay with P. aeruginosa ATCC 27853 [8] is 0.5 to 2 µg/mL; with S. aureus ATCC 29213 [9], 0.125 to 1 µg/mL; in the assay with E. coli ATCC 25922 [10], 0.25 to 1 µg/mL; in the assay on E. faecalis ATCC 29212 [11], 4 to 16 µg/mL. Further, the “Percentage of cell growth, antibiotic” value in [4] (antibiotic alone at MIC for E. faecalis ATCC 29212, 24 h) turned out to be 158.2%; in assay [4] (antibiotic alone at MIC for E. faecalis ATCC 29212, 48 h), 247.5%; in assay [4] (antibiotic alone at sub-MIC (half-MIC), 24 h), 132.3%; in [4] (antibiotic alone at sub-MIC (half-MIC), 48 h), 271.7%. Moreover, the “Percentage of cell growth, antibiotic + PB4 0.2 µM” value in assay [4] (antibiotic at MIC + PB4 0.2 µM, 24 h) is 125.6%; in assay [4] (antibiotic at MIC + PB4 0.2 µM, 48 h), 141.1%; in assay [4] (antibiotic at sub-MIC + PB4 0.2 µM, 24 h), 132.4%; in assay [4] (antibiotic at sub-MIC + PB4 0.2 µM, 48 h), 99.2%.
